According to patent US10252997B2, “Monocyclic compound” (Takeda Pharmaceutical Company Limited, priority 2015, dated 2019):

Key:
[1] = Anti-fatty liver effect (triglyceride amount in liver); type: in vivo; conditions: homo low-density lipoprotein receptor deficient mouse, choline-deficient amino acid diet, oral once per day for three weeks
Source text: As representative examples of anti-fatty liver effect, the action on fatty liver caused by non-alcoholic steatohepatitis was verified by the following method.
(§1) For efficacy evaluation of action on the above-mentioned fibrosis, 9-week-old, male, homo low-density lipoprotein receptor deficient mouse (Jackson Laboratories (Bar Harbor Me., USA)) was used. Specifically, a choline-deficient amino acid diet (A08111307, Research Diets, New Brunswick, N.J., USA) was fed to the above-mentioned mouse for one week, and a drug was administered for three weeks, and then the triglyceride amount in liver after the drug administration was measured.
(§2) For the above-mentioned drug administration group, the test compound suspended in 0.5% methylcellulose solution was orally administered by gavage using a stomach gavage needle once per day (n=8). […]
The measurement of the triglyceride amount in liver was performed by the following method. […] The total weight of the isolated liver was measured, and a part of the liver was immediately cryopreserved using dry ice. […] The dried substance was dissolved in 2-propanol, and the triglyceride concentration in the solution was measured by autoanalyzer (Hitachi 7180 type). The total triglyceride amount in the liver (mg/liver) was calculated from the weight of the liver used for the measurement and the total liver weight. […]

[2] = tested on: collagen I gene expression level in liver; assay: Inhibitory effect on liver fibrosis caused by NASH (collagen I gene expression level in liver); type: in vivo; conditions: homo low-density lipoprotein receptor deficient mouse, choline-deficient amino acid diet, oral once per day for three weeks
Experimental: The action on liver fibrosis caused by non-alcoholic steatohepatitis (NASH) was verified by the following method.
as §1, with “collagen I gene expression level” for “triglyceride amount”
as §2
The measurement of the collagen I gene expression level in liver was performed by the following method. […] The total RNA was purified using RNeasy Mini Kit (Qiagen, Valencia, Calif., USA), and cDNA was prepared using High Capacity cDNA Reverse Transcription Kit (PN4368814, Applied Biosystems, Foster City, Calif., USA), and the collagen I gene expression level was measured (collagen type I alpha 1, Part Number 4351370, Applied Biosystems) by the quantitative PCR method (TaqMan Gene Expression Master Mix, PN4369016, Applied Biosystems). […]

Compound: C[C@@H](COc1cnc(-c2ccc(Oc3cccc(OCC4CC4)c3)cc2)o1)NC(N)=O [Example 82, 1-((2S)-1-((2-(4-(3-(cyclopropylmethoxy)phenoxy)phenyl)-1,3-oxazol-5-yl)oxy)propan-2-yl)urea]
- inhibitory effect on fatty liver caused by non-alcoholic steatohepatitis (triglyceride amount in liver, FIG. 2) [1]: superior inhibitory effect on fatty liver caused by non-alcoholic steatohepatitis
- inhibitory effect on liver fibrosis caused by non-alcoholic steatohepatitis (collagen I gene expression level in liver, FIG. 1) [2]: superior inhibitory effect on liver fibrosis caused by non-alcoholic steatohepatitis
